Results from patent US12150940B2, “WASp-protecting small molecules, compositions, methods and uses thereof in the treatment of innate and acquired immune-related disorders or conditions” (BAR ILAN UNIVERSITY, priority 2016, dated 2024).

Assays:
platelets = test: Platelet intra-cellular calcium concentration (Indo-1-AM); format: cell-based, human; conditions: TRAP-6 10 μM, vs solvent
Method: Freshly-isolated human platelets were incubated with either control DMSO or the indicated WASp-binding SMCs, specifically, SMC #6 (FIG. 11A), SMC #30 (FIG. 11B), SMC #33 (FIG. 11C) and SMC #34 (FIG. 11D). Platelets were stimulated with TRAP-6 and calcium levels were measured by spectrofluorometer, as described in Experimental procedures. Data are representative of three independent experiments.
Cells were incubated with 5 μM Indo-1-acetoxymethylester (Indo-1-AM, Teflabs) in Tyrode's buffer at 37° C. for 20 min. The cells were washed once, resuspended in Tyrode's buffer containing 10 mM HEPES and maintained at room temperature for 20 min. The cells were incubated at 37° C. for 5 min before measurements and then stimulated with 10 μM TRAP-6. The Ca^2+ influx was measured by spectrofluorometer using the Synergy 4 Microplate Reader (Bio Tek).
However, following receptor-mediated stimulation, platelets dramatically elevate their intra-cellular calcium concentrations, which in turn serve as signaling cues that evoke platelet effector functions, including platelet spreading, adhesion and aggregation (Varga-Sabo et al, 2009). Therefore, the ability of WASp-protecting SMCs to upregulate intra-cellular calcium accumulation in activated platelets was next tested. Freshly-isolated human platelets were incubated with SMC #6, #30, #33 and #34 or with the solvent (negative control). Following incubation, platelets were stimulated with thrombin receptor activator peptide TRAP-6 (10 μM) and calcium levels were measured by spectrofluorometer, using Indo-1-AM-based calcium assay as described in Experimental procedures.

Jurkat T cells = test: Lymphocyte migration on ICAM-1/SDF-1α-coated cover glasses; format: cell-based, human; conditions: tracked over 20 min, mean ± SE
Method: Jurkat T cells were pretreated with DMSO or the indicated WASp-binding SMCs, and cell migration on ICAM-1/SDF-1α-coated cover glasses was tracked over a 20-min period, as described in Experimental procedures. Each line in FIG. 10A represents one cell. The tracks of five representative cells from each treatment are presented.
Error bars represent the SE from the mean. P values versus DMSO-treated control cells are presented and were calculated by two-tailed Student's t-test.
Approximately 1×10^5 lymphocytes were seeded over chambered coverslips (LabTek) pre-coated with 6 μg/ml ICAM-1 and 2 μg/ml SDF-1α. Cells were incubated at 37° C., 5% CO2 and DIC images were acquired with the Zeiss Observer Z1 inverted microscope every 5 s for 20 min under a 20× objective lens using Zen software. The random movement (Displacement and velocity) of the cells was automatically tracked and analyzed using TrackMate plugin of ImageJ software. An individual trace was assigned to each of the analyzed cells.
A common theme of active lymphocytes is their high migratory ability. This enables them to move within tissues and reach and engage target cells (Burkhardt et al, 2008). Because WASp plays a role in cellular motility, the ability of WASp-binding SMCs to effectively enhance the migration of lymphocytes was tested. The random movement of SMC-treated or control cells was automatically tracked and analyzed using live microscopy, as described in Experimental procedures.

WIP-WASp interaction = target: T1, WIP-WASp interaction (Homo sapiens, UniProt P42768, K230R/R34Q); test: FRET analysis of WIP-WASp interaction in activated T-cells expressing CFP-WASp and YFP-WIP; format: cell-based; conditions: anti-CD3 stimulatory coverslips, fixed after 5 min; mean ± SE
T1 construct: expressed in transfected cells
T1 sequence (P42768 whole entry R34Q/K230R): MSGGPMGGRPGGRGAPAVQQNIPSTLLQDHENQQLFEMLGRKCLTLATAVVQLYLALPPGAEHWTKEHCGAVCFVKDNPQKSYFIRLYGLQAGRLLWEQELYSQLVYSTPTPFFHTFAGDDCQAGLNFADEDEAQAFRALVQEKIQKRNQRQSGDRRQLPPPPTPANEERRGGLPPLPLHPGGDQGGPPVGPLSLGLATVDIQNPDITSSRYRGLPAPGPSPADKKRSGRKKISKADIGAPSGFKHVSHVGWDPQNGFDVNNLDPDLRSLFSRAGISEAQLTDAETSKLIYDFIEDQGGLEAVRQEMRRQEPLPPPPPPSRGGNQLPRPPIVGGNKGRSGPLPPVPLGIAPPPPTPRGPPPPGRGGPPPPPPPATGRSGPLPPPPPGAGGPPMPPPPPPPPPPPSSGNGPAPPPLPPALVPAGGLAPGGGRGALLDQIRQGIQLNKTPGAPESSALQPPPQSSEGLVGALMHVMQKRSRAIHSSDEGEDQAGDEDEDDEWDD
T1 sequence (O43516 whole entry partner): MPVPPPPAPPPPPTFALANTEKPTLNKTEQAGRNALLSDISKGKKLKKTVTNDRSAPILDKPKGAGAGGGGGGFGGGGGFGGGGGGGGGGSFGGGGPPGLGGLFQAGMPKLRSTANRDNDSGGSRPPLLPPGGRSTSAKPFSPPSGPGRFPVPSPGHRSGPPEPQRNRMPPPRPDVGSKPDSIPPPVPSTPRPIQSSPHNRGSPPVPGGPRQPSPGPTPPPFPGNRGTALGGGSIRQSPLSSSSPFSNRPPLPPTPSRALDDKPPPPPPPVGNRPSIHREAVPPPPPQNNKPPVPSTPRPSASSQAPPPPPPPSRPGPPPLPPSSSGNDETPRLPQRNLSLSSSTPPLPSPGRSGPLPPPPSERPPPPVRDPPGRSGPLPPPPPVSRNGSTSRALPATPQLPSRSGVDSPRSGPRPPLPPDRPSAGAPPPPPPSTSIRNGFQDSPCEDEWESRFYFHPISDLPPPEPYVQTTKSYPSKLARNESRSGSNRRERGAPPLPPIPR
Method: FIG. 13A: Jurkat T cells stably expressing CFP-WASp and YFP-WIP were treated with WASp-binding SMC #6, SMC #30, SMC #33, SMC #34 or control. The cells were then plated on stimulatory coverslips (coated with an anti-CD3 antibody), and fixed after 5 min. Cells were imaged by confocal microscope, and FRET efficiency was measured by the donor-sensitized acceptor emission technology (see Experimental procedures for details).
FIG. 13B: graph summarizing the percentage FRET efficiency in cells plated on the stimulatory coverslips, with the indicated treatment. Data are from four independent experiments. Error bars represent the SE from the mean. P values were calculated by two-tailed Student's t-test.
Spreading assays were performed as previously described (Fried et al, 2014; Barda-Saad 2005). Briefly, T cells (2×10^6 cells/ml) were seeded on the bottom of chambered cover glasses (LabTek) that were pre-coated with anti-CD3 stimulatory monoclonal antibodies (10 μg/ml). The cells were incubated in imaging buffer [RPMI without phenol red containing 10% fetal calf serum (FCS) and 25 mM HEPES] at 37° C., 5% CO2, for the times indicated in the figure legends. Cells were fixed for 25 min with 4% paraformaldehyde in phosphate-buffered saline (PBS) and then were washed three times with PBS.
Double-color FRET was performed as described previously (Barda-Saad et al, 2005; Pauker, 2011, Pauker, 2012). […] The non-FRET components were calculated and removed with calibration curves derived from images of single-labeled cells containing CFP or YFP, as previously described (Barda-Saad et al, 2005). […] Bleed-through components were calculated as a function of the intensity of the expressed fluorescent proteins with data gathered from single-labeled cell lines. By using the intensity measured pixel by pixel through the different filter sets, as well as cross-talk elements that were isolated from the control, single-labeled cells, the measured FRET was corrected and the actual FRET efficiency at every pixel was determined. The relative FRET efficiency (FRETeff) was calculated on a pixel-by-pixel basis with the following equation: FRETeff=FRETcorr/(FRETcorr+donor)×100%, where FRETcorr is the pixel intensity in the corrected FRET image, and donor is the intensity of the corresponding pixel in the appropriate donor channel image. To increase the reliability of the calculations and to prevent low-level noise from distorting the calculated ratio, the inventors excluded pixels below 50 intensity units, as well as saturated pixels from the calculations, and set their intensities to zero. […] The FRET efficiency in the negative control system was measured and calculated in the same manner as that in the main experiment. […]

Cc1ccccc1N(CC(=O)NCc1ccccc1)C(=O)CCC(=O)Nc1nccs1 [SMC #33, N′-[2-(benzylamino)-2-oxoethyl]-N′-(2-methylphenyl)-N-(1,3-thiazol-2-yl)butanediamide]
intra-cellular calcium concentration in activated platelets (platelets): dramatically enhanced | mean cell displacement (Jurkat T cells): 32.92±4.28 | average FRET efficiency (WIP-WASp interaction): 21.4±1.4%

CC(=O)N[C@H]1C[C@@H](c2ccc3c(c2)nnn3C)O[C@@H](c2ccc(Cl)cc2)C1 [SMC #6, N-[(2R,4R,6S)-2-(4-chlorophenyl)-6-(1-methylbenzotriazol-5-yl)oxan-4-yl]acetamide]
intra-cellular calcium concentration in activated platelets (platelets): dramatically enhanced | mean cell displacement (Jurkat T cells): 29.52±2.96 | average FRET efficiency (WIP-WASp interaction): 22.7±1.4%

CC1CCCC(C)N1C(=O)CSc1nnc(COc2cccc3cccnc23)o1 (stereo not drawn) [SMC #34, 1-(2,6-dimethylpiperidin-1-yl)-2-[[5-(quinolin-8-yloxymethyl)-1,3,4-oxadiazol-2-yl]sulfanyl]ethanone]
intra-cellular calcium concentration in activated platelets (platelets): dramatically enhanced | mean cell displacement (Jurkat T cells): 48.91±6 | average FRET efficiency (WIP-WASp interaction): 23.8±1.1%
